Results: ChEMBL document CHEMBL1139685, “Antimalarial activity of N-alkyl amine, carboxamide, sulfonamide, and urea derivatives of a dispiro-1,2,4-trioxolane piperidine” (Bioorg Med Chem Lett, 2006)
Values after ≈ are worked out from the molar mass of the structure shown.

Columns and labels:
[1] = tested on: Mus musculus; experiment: Survival of MORO mice (Mus musculus) infected with Plasmodium berghei at 10 mg/kg, perorally after 30 day post-infection; format: functional; settings: route oral
[2] = tested on: Plasmodium falciparum; experiment: Antimalarial activity against Plasmodium falciparum K1; format: functional, organism-based
[3] = tested on: Plasmodium falciparum; experiment: Antimalarial activity against Plasmodium falciparum NF54; format: functional, organism-based
[4] = tested on: Mus musculus; experiment: Survival of MORO mice (Mus musculus) infected with Plasmodium berghei at 10 mg/kg, subcutaneously after 30 day post-infection; format: functional; settings: route subcutaneous
[5] = Lipophilicity, LogD at pH 7.4; format: physicochemical; settings: buffer
[6] = tested on: Plasmodium berghei; experiment: Antimalarial activity in Plasmodium berghei infected MORO mice (Mus musculus) at 10 mg/kg subcutaneous dose; format: functional
[7] = tested on: Plasmodium berghei; experiment: Antimalarial activity in Plasmodium berghei infected MORO mice (Mus musculus) at 10 mg/kg peroral dose; format: functional; settings: route oral
[8] = Partition coefficient, logP of the compound; format: physicochemical; settings: octanol/water

CC(C)(C)NC(=O)N1CCC2(CC1)OOC1(O2)C2CC3CC(C2)CC1C3 (centres undefined)
Activity [1]: 6.7 days
IC50 [2]: 0.98 ng/mL (≈ 2.69 nM)
IC50 [3]: 1.8 ng/mL (≈ 4.94 nM)
Activity [4]: 9.7 days

O=C(O)c1ccccc1C(=O)N1CCC2(CC1)OOC1(O2)C2CC3CC(C2)CC1C3 (centres undefined)
logD [5]: 1.2
Activity [1]: 6.3 days
IC50 [2]: 22 ng/mL (≈ 53.2 nM)
IC50 [3]: 13 ng/mL (≈ 31.4 nM)
Activity [4]: 6.3 days

CCS(=O)(=O)N1CCC2(CC1)OOC1(O2)C2CC3CC(C2)CC1C3 (centres undefined)
Activity [6]: 99.94%
Activity [7]: 85%
Activity [1]: 7 days
IC50 [2]: 0.38 ng/mL (≈ 1.06 nM)
IC50 [3]: 0.81 ng/mL (≈ 2.27 nM)
Activity [4]: 9.3 days

COCC(=O)N1CC[C@]2(CC1)OO[C@]1(O2)C2CC3CC(C2)CC1C3
Activity [1]: 7.3 days
IC50 [2]: 0.95 ng/mL (≈ 2.82 nM)
IC50 [3]: 0.2 ng/mL (≈ 0.593 nM)
Activity [4]: 7.3 days

C[C@H]1[C@H](OC(=O)CCC(=O)O)O[C@@H]2O[C@@]3(C)CC[C@H]4[C@H](C)CC[C@@H]1[C@@]24OO3 [ARTESUNATE]
Activity [6]: 65%
Activity [7]: 65%
Activity [1]: 6.8 days
Activity [4]: 6.8 days

O=C(N1CCCC1)N1CCC2(CC1)OOC1(O2)C2CC3CC(C2)CC1C3 (centres undefined)
Activity [1]: 7.3 days
IC50 [2]: 3.9 ng/mL (≈ 10.8 nM)
IC50 [3]: 6.7 ng/mL (≈ 18.5 nM)
Activity [4]: 9.7 days

CN1CCN(C(=O)N2CCC3(CC2)OOC2(O3)C3CC4CC(C3)CC2C4)CC1 (centres undefined)
logD [5]: 2.6
Activity [1]: 7.3 days
IC50 [2]: 0.2 ng/mL (≈ 0.511 nM)
IC50 [3]: 0.22 ng/mL (≈ 0.562 nM)
Activity [4]: 8.3 days

O=C(c1ccncc1)N1CCC2(CC1)OOC1(O2)C2CC3CC(C2)CC1C3 (centres undefined)
Activity [1]: 6.7 days
Activity [4]: 7 days

CN(C)C(=O)N1CCC2(CC1)OOC1(O2)C2CC3CC(C2)CC1C3 (centres undefined)
Activity [1]: 7 days
IC50 [2]: 0.7 ng/mL (≈ 2.08 nM)
Activity [4]: 7 days

CO[C@H]1O[C@@H]2O[C@@]3(C)CC[C@H]4[C@H](C)CC[C@@H]([C@H]1C)[C@@]24OO3
Activity [6]: 99.78%
Activity [7]: 98%
logP [8]: 3.3
Activity [1]: 7.9 days
IC50 [2]: 0.74 ng/mL (≈ 2.48 nM)
IC50 [3]: 1.2 ng/mL (≈ 4.02 nM)
Activity [4]: 9.1 days

CC(C)(C)CC(=O)N1CCC2(CC1)OOC1(O2)C2CC3CC(C2)CC1C3 (centres undefined)
Activity [1]: 7.7 days
Activity [4]: 8.3 days

O=C(Nc1ccc(Cl)cc1)N1CCC2(CC1)OOC1(O2)C2CC3CC(C2)CC1C3 (centres undefined)
Activity [1]: 6 days
Activity [4]: 13.7 days

c1cc(CN2CCC3(CC2)OOC2(O3)C3CC4CC(C3)CC2C4)ccn1 (centres undefined)
logD [5]: 2.7
Activity [1]: 6.3 days
IC50 [2]: 0.4 ng/mL (≈ 1.12 nM)
IC50 [3]: 0.67 ng/mL (≈ 1.88 nM)
Activity [4]: 11 days

O=S(=O)(c1ccccc1)N1CCC2(CC1)OOC1(O2)C2CC3CC(C2)CC1C3 (centres undefined)
Activity [6]: >99.99%
Activity [7]: 71%
logP [8]: 5.5
Activity [1]: 6 days
IC50 [2]: 1.1 ng/mL (≈ 2.71 nM)
IC50 [3]: 1.2 ng/mL (≈ 2.96 nM)
Activity [4]: 10.3 days

O=S(=O)(Cc1ccccc1)N1CCC2(CC1)OOC1(O2)C2CC3CC(C2)CC1C3 (centres undefined)
Activity [1]: 5.7 days
IC50 [2]: 1.7 ng/mL (≈ 4.05 nM)
IC50 [3]: 4.1 ng/mL (≈ 9.77 nM)
Activity [4]: 8 days

C1CC2(CCN1)OOC1(O2)C2CC3CC(C2)CC1C3.Cl (centres undefined)
logD [5]: 0.25
Activity [6]: 84%
Activity [7]: 59%
Activity [1]: 6.3 days
IC50 [2]: 0.15 ng/mL
IC50 [3]: 0.34 ng/mL
Activity [4]: 7.7 days

O=C(c1ccccc1)N1CCC2(CC1)OOC1(O2)C2CC3CC(C2)CC1C3 (centres undefined)
Activity [6]: 99.9%
Activity [7]: 93%
logP [8]: 5.6
Activity [1]: 7 days
IC50 [2]: 0.35 ng/mL (≈ 0.947 nM)
IC50 [3]: 0.58 ng/mL (≈ 1.57 nM)
Activity [4]: 8.7 days

CCS(=O)(=O)CCN1CCC2(CC1)OOC1(O2)C2CC3CC(C2)CC1C3 (centres undefined)
logD [5]: 2.3
Activity [1]: 7 days
IC50 [2]: 1 ng/mL (≈ 2.59 nM)
IC50 [3]: 2.9 ng/mL (≈ 7.52 nM)
Activity [4]: 8 days

NC(=O)N1CCC2(CC1)OOC1(O2)C2CC3CC(C2)CC1C3 (centres undefined)
Activity [1]: 8.3 days
Activity [4]: 8.7 days

O=C(CO)N1CCC2(CC1)OOC1(O2)C2CC3CC(C2)CC1C3 (centres undefined)
Activity [6]: 99.8%
Activity [7]: 92%
logP [8]: 2.4
Activity [1]: 7 days
IC50 [2]: 0.3 ng/mL (≈ 0.928 nM)
IC50 [3]: 0.6 ng/mL (≈ 1.86 nM)
Activity [4]: 8 days

C1CCC2(CC1)OOC1(O2)C2CC3CC(C2)CC1C3 (centres undefined)
Activity [6]: >99.99%
Activity [7]: 94%
logP [8]: 6.1
Activity [1]: 7.2 days
IC50 [2]: 0.97 ng/mL (≈ 3.67 nM)
IC50 [3]: 1.4 ng/mL (≈ 5.3 nM)
Activity [4]: 11.9 days

O=C(O)CCC(=O)N1CCC2(CC1)OOC1(O2)C2CC3CC(C2)CC1C3 (centres undefined)
Activity [6]: 52%
Activity [7]: 39%
logP [8]: 2.3
Activity [1]: 6 days
IC50 [2]: 7.1 ng/mL (≈ 19.4 nM)
IC50 [3]: 7.2 ng/mL (≈ 19.7 nM)
Activity [4]: 6.3 days

CC(C)N(C(=O)N1CCC2(CC1)OOC1(O2)C2CC3CC(C2)CC1C3)C(C)C (centres undefined)
Activity [1]: 8.3 days
IC50 [3]: 6.6 ng/mL (≈ 16.8 nM)
Activity [4]: 20.3 days

CC(=O)Nc1ccc(S(=O)(=O)N2CCC3(CC2)OOC2(O3)C3CC4CC(C3)CC2C4)cc1 (centres undefined)
Activity [1]: 6.3 days
IC50 [2]: 1.4 ng/mL (≈ 3.03 nM)
IC50 [3]: 0.5 ng/mL (≈ 1.08 nM)
Activity [4]: 12 days

c1ccc(CN2CCC3(CC2)OOC2(O3)C3CC4CC(C3)CC2C4)cc1 (centres undefined)
logD [5]: 3.5
Activity [1]: 6 days
IC50 [2]: 2.5 ng/mL (≈ 7.03 nM)
IC50 [3]: 2.6 ng/mL (≈ 7.31 nM)
Activity [4]: 10 days

CS(=O)(=O)N1CCC2(CC1)OOC1(O2)C2CC3CC(C2)CC1C3 (centres undefined)
Activity [6]: 99.97%
Activity [7]: 93%
Activity [1]: 6.7 days
IC50 [2]: 0.59 ng/mL (≈ 1.72 nM)
IC50 [3]: 0.64 ng/mL (≈ 1.86 nM)
Activity [4]: 10.3 days

O=C(Nc1ccccc1)N1CCC2(CC1)OOC1(O2)C2CC3CC(C2)CC1C3 (centres undefined)
Activity [1]: 7 days
Activity [4]: 19.7 days

O=C(N1CCOCC1)N1CCC2(CC1)OOC1(O2)C2CC3CC(C2)CC1C3 (centres undefined)
Activity [1]: 8.7 days
Activity [4]: 9 days

Cc1ccc(NC(=O)N2CCC3(CC2)OOC2(O3)C3CC4CC(C3)CC2C4)cc1 (centres undefined)
Activity [1]: 6 days
IC50 [2]: 2.3 ng/mL (≈ 5.77 nM)
IC50 [3]: 2.3 ng/mL (≈ 5.77 nM)
Activity [4]: 14.3 days

CC(=O)N1CCC2(CC1)OOC1(O2)C2CC3CC(C2)CC1C3 (centres undefined)
Activity [6]: 85%
Activity [7]: 81%
logP [8]: 3.8
Activity [1]: 6.7 days
IC50 [2]: 0.82 ng/mL (≈ 2.67 nM)
IC50 [3]: 0.93 ng/mL (≈ 3.03 nM)
Activity [4]: 7.3 days
